# Results: patent EP3797781A1, “USE OF EC-7072 AND SYNERGIC COMPOSITIONS THEREOF IN TREATMENT OF CHRONIC LYMPHOCYTIC LEUKEMIA” (priority 2019, dated 2021)
# Assays:
# [1] = tested on: T cells isolated from patients with CLL; assay: T cell apoptosis by Annexin V/PI staining; type: cell-based, human; settings: 200 nM, 24 hours; n = 3
# Experimental: Cell viability and apoptosis were evaluated by double-staining with the mitochondrial inner transmembrane potential (ΔΨm)-sensitive dye DiOC6(3) (3,3'-dihexyloxacarbocyanine iodide; Sigma-Aldrich) and the exclusion dye propidium iodide (PI; Immunostep), allowing identification of apoptotic [DiOC6(3)^low PI^-] and dead [PI^+] cells as per Proc. Natl. Acad. Sci. U.S.A. (2014) 111(8):3020-3025 and Methods Mol. Biol. (2016) 1419:1-16. Briefly, PBMCs were resuspended in culture medium containing 20 nM DiOC6(3) and incubated for 30 minutes at 37 °C. Then, PI (1 µg/mL) was added and cells were further incubated for 10 minutes at room temperature (RT). Cells were analyzed by flow cytometry considering DiOC6(3)^+PI^- cells as viable. In some experiments, apoptosis was evaluated by staining with Annexin V/PI. […]
# The induction of caspase-dependent apoptosis on primary CLL cells by EC-7072 was assessed by: • (i) incubating PBMCs isolated from patients with CLL (n = 6) following treatment with increasing concentrations of EC-7072 (0 - 400 nM) for 24 hours. Apoptosis of leukemia cells was evaluated by cytofluorometric assessment of Annexin V/PI staining to obtain percentages of apoptotic [Annexin V^+ PI^-] and dead [PI^+] cells (Figure 3A); • (ii) incubating PBMCs and T cells isolated from patients with CLL (n = 3) following treatment with EC-7072 (200 nM) for 24 hours. […]
# [2] = tested on: NK cells (CD3^-CD56^+); assay: NK cell numbers, viability and apoptosis in PBMCs (flow cytometry, DiOC6(3)/PI staining); type: cell-based, human
# Experimental: To evaluate absolute cell numbers, an equal volume of PKH26 reference microbeads (Sigma-Aldrich) was added to each sample after staining for immune subset identification. Microbeads (5x10^3) were acquired by flow cytometry and absolute numbers of each immune population within the sample were calculated. Normalized percentage values were calculated considering the control (DMSO)-treated cells as 100%.
# Cell viability and apoptosis were evaluated by double-staining with the mitochondrial inner transmembrane potential (ΔΨm)-sensitive dye DiOC6(3) (3,3'-dihexyloxacarbocyanine iodide; Sigma-Aldrich) and the exclusion dye propidium iodide (PI; Immunostep), allowing identification of apoptotic [DiOC6(3)^low PI^-] and dead [PI^+] cells as per Proc. Natl. Acad. Sci. U.S.A. (2014) 111(8):3020-3025 and Methods Mol. Biol. (2016) 1419:1-16. Briefly, PBMCs were resuspended in culture medium containing 20 nM DiOC6(3) and incubated for 30 minutes at 37 °C. Then, PI (1 µg/mL) was added and cells were further incubated for 10 minutes at room temperature (RT). Cells were analyzed by flow cytometry considering DiOC6(3)^+PI^- cells as viable. In some experiments, apoptosis was evaluated by staining with Annexin V/PI. Thus, PBMCs were incubated in Annexin V binding buffer containing 5 µg/mL Annexin V-FITC (Biolegend) for 15 minutes at RT and PI (1 µg/mL) was subsequently added. Data were normalized to the untreated control as a percentage. Only samples with at least 60% of viable cells (DiOC6(3)^+; Annexin V^-) in the control (DMSO) condition were employed in this study.
# The effect of EC-7072 toward healthy immune subsets, T lymphocytes and natural killer (NK) cells, which are chronically exposed to leukemia cells in the peripheral blood of patients with CLL was assessed by: • (i) incubating PBMCs isolated from patients with CLL (n = 10) following treatment with increasing concentrations of EC-7072 (0 - 400 nM) for 24 hours. Numbers of T cells (CD3^+CD56^-) (Figure 2A) and NK cells (CD3^-CD56^+) (Figure 2B) were evaluated by flow cytometry and normalized to their respective control (DMSO) condition for each individual patient to obtain percentage of relative number of T cells and NK cells, respectively; • (ii) incubating PBMCs isolated from patients with CLL (n = 6 - 10) following treatment with increasing concentrations of EC-7072 (0 - 400 nM) for 24 hours. Viability of immune subsets (leukemia cells, T cells and NK cells) was determined by cytofluorometric assessment of DiOC6(3)/PI staining and normalized to their respective control (DMSO) condition for each individual patient to obtain percentage of viable [DiOC6(3)^+] cells (Figures 2C and 2D); • (iii) incubating PBMCs isolated from patients with CLL (n = 11) following treatment with DMSO or EC-7072 (200 nM) for 24 hours. Numbers of CD4^+ cells (Figure 2E) and CD8^+ T cells (Figure 2F) were evaluated by flow cytometry and normalized to their respective control (DMSO) condition for each individual experiment; • (iv) incubating PBMCs isolated from healthy donors (n = 15) following treatment with EC-7072 (200 nM) for 24 hours. […]
compound,measurement,setting,value
"CO[C@@H]([C@@H]1Cc2cc3cc(O[C@H]4C[C@@H](O[C@H]5C[C@@H](O)[C@H](O)[C@@H](C)O5)[C@H](O)[C@@H](C)O4)c(C)c(O)c3c(O)c2C(=O)[C@H]1O[C@H]1C[C@@H](O[C@H]2C[C@@H](O[C@H]3C[C@](C)(O)[C@H](O)[C@@H](C)O3)[C@@H](O)[C@@H](C)O2)[C@H](O)[C@@H](C)O1)[C@@H](O)C(C)=O [EC-7072, mithramycin SK]",T cell apoptosis (Annexin V/PI),[1],no significant apoptosis
same,ratio of apoptosis in NK cells relative to NK cell death,"[2]; 200 nM, 24 hours, PBMCs from healthy donors (n = 4), Figure 2R",far lower ratio of apoptosis in NK cells relative to NK cell death than does EC-7073
same,"viability of NK cells, comparison of mithralogs","[2]; 200 nM, 24 hours, PBMCs from healthy donors (n = 10), Figure 2O",not exhibit toxicity
same,cell numbers and viability of NK cells,"[2]; 200 nM, 24 hours, PBMCs from healthy donors (n = 15), compared with PBMCs from patients with CLL",comparable effects
same,NK cell survival,"[2]; 200 nM, 24 hours, PBMCs from patients with CLL",only slightly altered
same,toxicity against NK cells compared with fludarabine,"[2]; EC-7072 200 nM 24 hours vs fludarabine 10 µM 24 hours, PBMCs from patients with CLL (n = 6 - 8), Figure 4F",significantly less toxic than fludarabine
same,toxicity against NK cells compared with leukemia cells,"[2]; high doses (400 nM), 24 hours, PBMCs from patients with CLL",significantly less toxic against NK cells than leukemia cells
